Patent US20230023332A1, “OLEAN-PHENYLACRYLAMIDE DERIVATIVE, METHOD FOR PREPARING SAME, AND USE THEREOF” (Lunan Pharmaceutical Group Corporation, priority 2019, published 2023)
Where two headings read alike, the source gives them in different places.

Columns and labels:
[1] = tested on: human non-small cell lung cancer cell strain A549; assay: MTT proliferation inhibition, A549; assay type: cell-based; conditions: A549 cells, 48 h, read-out: Inhibitory activity (IC50) against proliferation, A549
Procedure: (§1) The anti-tumor activity of the compounds of the present invention was determined by the method of methyl thiazolyl tetrazolium (MTT), Bardoxolone Methyl (CDDO-Me) being selected as a positive control medicament.
(§2) Instruments: ultra-clean bench (SW-CJ-1FD, AIRTECH, Suzhou Antai Airtech Co. Ltd.), constant-temperature CO2 incubator (3111, Thermo, USA), inverted biomicroscope (IX71, OLYMPUS, Japan), ELISA microplate reader (Model 680, BIO-RAD, USA), platform shaker (Kylin-bell lab Instruments), autoclave (YXO.SG4I.280, Shanghai Huaxian), and centrifuge (SIGMA).
(§3) Reagents: DMEM (GIBCO), fetal bovine serum (GIBCO), trypsin (SIGMA), and DMSO (SIGMA).
(§4) Cell strains: human non-small cell lung cancer cell strain A549, human liver cancer cell strain HepG2, human breast cancer cell strain MCF-7, human renal tubular epithelial cells HK-2, rat embryonic cardiomyocytes H9C2 (all provided by Jiangsu KeyGEN BioTECH Co., Ltd.).
(§5) Methods: the cryopreserved cell strains were resuscitated and cultured in a CO2 incubator at a constant temperature of 37° C. with liquid being changed once daily. Plating was carried out when the cell strains were in a good state in the exponential phase. 1 mL of 0.25% trypsin solution was added for digestion for 1-2 min. The cell status was observed under the microscope, and when the adherent cells became round and shrunk, the digestion solution was aspirated and 1-2 mL of a DMEM medium containing 10% fetal bovine serum was added to obtain a cell suspension, on which a cell count was performed. The amount of required cell suspension was calculated on the basis of 5×10^4 cells per well and the total number of wells. The cell suspension was inoculated on a 96-well plate at 100 μL/well, the surroundings being blocked with PBS, followed by incubation in a CO2 incubator at a constant temperature of 37° C. for 24 h.
(§6) The test medicament, positive control medicament CDDO-Me, and blank control group DMSO were prepared in DMEM media to a final concentration of 5 μM/well, each medicament being placed in 3 replicate wells, followed by incubation for 48 h. The MTT reagent was added to the 96-well plate at 10 μL/well to further incubate for 4 h. The medium in the plate was aspirated and 100 μL of DMSO was added to each well, followed by shaking on the platform shaker for 10 min such that the crystals were dissolved. The absorbance of each well was examined by the ELISA microplate reader at a wavelength of 570 nm, and the cell inhibition rate was calculated according to the formula hereinafter. The mean value of three preliminary screening results was taken as the final inhibition rate thereof.
(§7) Cell inhibition rate (%)=[(OD value of blank control−OD value of dosing cohort)/OD value of blank control group]×100%

[2] = tested on: human breast cancer cell strain MCF-7; assay: MTT proliferation inhibition, MCF-7; assay type: cell-based; conditions: 48 h, read-out: Inhibitory activity (IC50) against proliferation, MCF-7
Procedure: as §1, §2, §3, §4, §5, §6, §7

[3] = tested on: human liver cancer cell strain HepG2; assay: MTT proliferation inhibition, HepG2; assay type: cell-based; conditions: HepG2 cells, 48 h, read-out: Inhibitory activity (IC50) against proliferation, HepG2
Procedure: as §1, §2, §3, §4, §5
The MTT reagent was added to the 96-well plate at 10 μL/well to further incubate for 4 h. The medium in the plate was aspirated and 100 μL of DMSO was added to each well, followed by shaking on the platform shaker for 10 min such that the crystals were dissolved. […] The mean value of three preliminary screening results was taken as the final inhibition rate thereof.
as §7

[4] = tested on: human renal tubular epithelial cells HK-2; assay: MTT proliferation inhibition / toxicity, HK-2; assay type: cell-based; conditions: for IC50: HK-2 cells, MTT, 48 h, read-out: Inhibitory activity (IC50) against proliferation, HK-2; for toxicity to human renal tubular epithelial cells HK-2: statement in words
Procedure: as §1, §2, §3, §4, §5, §6, §7

[5] = tested on: rat embryonic cardiomyocytes H9C2; assay: MTT proliferation inhibition / toxicity, H9C2; assay type: cell-based; conditions: for IC50: H9C2 cardiomyocytes, MTT, 48 h, read-out: Inhibitory activity (IC50) against proliferation, H9C2; for inhibitory activity against normal cardiomyocytes H9C2 relative to CDDO-Me: fraction of the inhibitory activity of CDDO-Me
Procedure: as §1, §2, §3, §4, §5, §6, §7

S180 ascitic tumor cells = assay: Inhibitory effect on tumors in S180 tumor-bearing mice; assay type: in vivo, ICR mice; conditions: for Tumor Mass / Tumor inhibition rate: 7 consecutive days; for Splenic index: 7 days
Procedure: (§8) 1) Experimental animals: 72 female ICR mice between 6 and 8 weeks of age; experimental cells: S180 ascitic tumor cells.
(§9) 8 animals were used as the normal group, and the rest of the mice were subjected to modeling by the following method.
(§10) 2) Proliferation and passaging of S180 ascitic tumor cells: S180 ascitic tumor cells cryopreserved at −80° C. were thawed in a water bath at 37° C., placed in a 12 mL centrifuge tube, to which an appropriate amount of saline was added, and centrifuged at 1200 rpm for 5 min. The supernatant was discarded, then the cells were resuspended in 300 μL of saline and intraperitoneally injected into an ICR mouse. As the mouse's abdomen swelled up, intraperitoneal injection of the cells in a second ICR mouse was performed, and the cells were ready for inoculation when the abdomen thereof swelled up.
(§11) 3) Inoculation of S180 tumor cells in the armpit of mice: S180 cells cultured to 2 passages were centrifuged and saline was added to obtain a concentration of 1×10^7 cells/mL. A volume of 100 μL of the cells were injected subcutaneously into armpit of mice. A mouse tumor-bearing model was developed.
(§12) The model mice were divided into a tumor-bearing model group, a compound I-7 5 mg/kg group, a compound I-7 15 mg/kg group, a compound I-12 5 mg/kg group, a compound I-12 15 mg/kg group, a compound I-16 5 mg/kg group, a compound I-16 15 mg/kg group and a CDDO-Me 15 mg/kg group.
(§13) There were 8 mice in each group.
(§14) 4) Dosing: the medicaments were administered intragastrically when the tumor grew out.
Compound I-7 of 5 mg/kg was administered in the compound I-7 5 mg/kg group;
compound I-7 of 15 mg/kg was administered in the compound I-7 15 mg/kg group;
compound I-12 of 5 mg/kg was administered in the compound I-12 5 mg/kg group;
compound I-12 of 15 mg/kg was administered in the compound I-12 15 mg/kg group;
compound I-16 of 5 mg/kg was administered in the compound I-16 5 mg/kg group;
compound I-16 of 15 mg/kg was administered in the compound I-16 15 mg/kg group; and
CDDO-Me of 15 mg/kg was administered in the CDDO-Me 15 mg/kg group.
(§15) An equal volume of 0.5% croscarmellose sodium was administered to the normal group and the model group.
(§16) The dosing was executed for 7 consecutive days. The mice were dissected the next day following the last dosing.
(§17) Testing items: the body weight, spleen weight and tumor weight were measured. The spleens were ground on ice, followed by red blood cell lysis and incubation with FITC-CD11b, LY6C, and LY6G antibodies for 15 min, and then tested for CD11b+LY6Chi+ and CD11b+LY6G+ with flow cytometry.

M-MDSC, PMN-MDSC = assay: Spleen M-MDSC / PMN-MDSC by flow cytometry in S180 tumor-bearing mice; assay type: in vivo, ICR mice; conditions: 7 days; for M-MDSC: CD11b+LY6Chi+; for PMN-MDSC: CD11b+LY6G+
Procedure: as §8, §9, §10, §11, §12, §13, §14, §15, §16, §17

[6] = Homo sapiens, MCF7, MCF-7 cells

`CC1(C)CC[C@]2(NC(=O)/C=C(\C#N)c3ccc(C(F)(F)F)cc3)CC[C@]3(C)[C@H](C(=O)C=C4[C@@]5(C)C=C(C#N)C(=O)C(C)(C)[C@@H]5CC[C@]43C)[C@@H]2C1` [Compound I-16] gave an IC50 ([1]; Homo sapiens) of 888 ± 21 nM, an IC50 [2, 6] of 958 ± 209 nM and an IC50 ([3]; Homo sapiens) of 934 ± 11 nM. The IC50 ([4]; Homo sapiens) was 618 ± 72 nM, the “toxicity to human renal tubular epithelial cells HK-2” value (“toxicity” for short) [4] was “lower toxicity” and the IC50 ([5]; Rattus norvegicus) was 0.108 ± 0.007 µM. For the same molecule, the “Tumor Mass” value (S180 ascitic tumor cells; 5 mg/kg intragastric) was 1.49 ± 0.17 ^ g, the Tumor inhibition rate (S180 ascitic tumor cells; 5 mg/kg intragastric) was 43.69% and the Splenic index (S180 ascitic tumor cells; 5 mg/kg intragastric) was 47.86 ± 5.73^###* 10*mg/g. The “Tumor Mass” value (S180 ascitic tumor cells; 15 mg/kg intragastric) was 0.96 ± 0.14 g, the Tumor inhibition rate (S180 ascitic tumor cells; 15 mg/kg intragastric) was 63.60% and the Splenic index (S180 ascitic tumor cells; 15 mg/kg intragastric) was 46.45 ± 5.20^###* 10*mg/g. It also gave a M-MDSC (M-MDSC, PMN-MDSC; 5 mg/kg intragastric) of 0.71 ± 0.08 %, a PMN-MDSC (M-MDSC, PMN-MDSC; 5 mg/kg intragastric) of 8.72 ± 2.09 % and a M-MDSC (M-MDSC, PMN-MDSC; 15 mg/kg intragastric) of 0.40 ± 0.07 %. It also gave a PMN-MDSC (M-MDSC, PMN-MDSC; 15 mg/kg intragastric) of 6.79 ± 1.55 %.

In the case of `CC1(C)CC[C@]2(NC(=O)/C(C#N)=C/c3ccccc3)CC[C@]3(C)[C@H](C(=O)C=C4[C@@]5(C)C=C(C#N)C(=O)C(C)(C)[C@@H]5CC[C@]43C)[C@@H]2C1` [Compound I-7], the IC50 ([1]; Homo sapiens) is reported as 315 ± 68 nM, the IC50 [2, 6] is reported as 2225 ± 22 nM and the IC50 ([3]; Homo sapiens) is reported as 2720 ± 36 nM. The IC50 ([4]; Homo sapiens) was 1780 ± 259 nM, the “toxicity” value [4] was “lower toxicity” and the IC50 [5] was 3.17 ± 1.74 µM. For the same molecule, the IC50 ([5]; Rattus norvegicus, H9c2, 48 h) was 3.18 ± 1.74 µM, the “inhibitory activity against normal cardiomyocytes H9C2 relative to CDDO-Me” value [5] was “approximately 1/10” and the “Tumor Mass” value (S180 ascitic tumor cells; 5 mg/kg intragastric) was 1.53 ± 0.10 ^ g. For the same molecule, the Tumor inhibition rate (S180 ascitic tumor cells; 5 mg/kg intragastric) was 42.17%, the Splenic index (S180 ascitic tumor cells; 5 mg/kg intragastric) was 48.55 ± 4.62^##* 10*mg/g and the “Tumor Mass” value (S180 ascitic tumor cells; 15 mg/kg intragastric) was 1.45 ± 0.12 g. For the same molecule, the Tumor inhibition rate (S180 ascitic tumor cells; 15 mg/kg intragastric) was 45.20%, the Splenic index (S180 ascitic tumor cells; 15 mg/kg intragastric) was 47.03 ± 6.54^##* 10*mg/g and the M-MDSC (M-MDSC, PMN-MDSC; 5 mg/kg intragastric) was 0.68 ± 0.22 %. For the same molecule, the PMN-MDSC (M-MDSC, PMN-MDSC; 5 mg/kg intragastric) was 8.72 ± 1.13 %, the M-MDSC (M-MDSC, PMN-MDSC; 15 mg/kg intragastric) was 0.59 ± 0.09 % and the PMN-MDSC (M-MDSC, PMN-MDSC; 15 mg/kg intragastric) was 6.34 ± 1.47 %.

For `CC1(C)CC[C@]2(NC(=O)/C(C#N)=C/c3ccc(Cl)cc3)CC[C@]3(C)[C@H](C(=O)C=C4[C@@]5(C)C=C(C#N)C(=O)C(C)(C)[C@@H]5CC[C@]43C)[C@@H]2C1` [Compound I-12], the IC50 ([1]; Homo sapiens) was 761 ± 32 nM, the IC50 [2, 6] was 1640 ± 462 nM and the IC50 ([3]; Homo sapiens) was 974 ± 58 nM. For the same molecule, the IC50 ([4]; Homo sapiens) was 2430 ± 33 nM, the “toxicity” value [4] was “lower toxicity” and the IC50 ([5]; Rattus norvegicus) was 3.14 ± 1.53 µM. The “inhibitory activity against normal cardiomyocytes H9C2 relative to CDDO-Me” value [5] was “approximately 1/10”, the “Tumor Mass” value (S180 ascitic tumor cells; 5 mg/kg intragastric) was 1.33 ± 0.11 g and the Tumor inhibition rate (S180 ascitic tumor cells; 5 mg/kg intragastric) was 49.55%. For the same molecule, the Splenic index (S180 ascitic tumor cells; 5 mg/kg intragastric) was 45.99 ± 7.68^##* 10*mg/g, the “Tumor Mass” value (S180 ascitic tumor cells; 15 mg/kg intragastric) was 0.66 ± 0.14 g and the Tumor inhibition rate (S180 ascitic tumor cells; 15 mg/kg intragastric) was 74.96%. The Splenic index (S180 ascitic tumor cells; 15 mg/kg intragastric) was 44.37 ± 5.27^###** 10*mg/g, the M-MDSC (M-MDSC, PMN-MDSC; 5 mg/kg intragastric) was 0.63 ± 0.13 % and the PMN-MDSC (M-MDSC, PMN-MDSC; 5 mg/kg intragastric) was 8.86 ± 1.53 %. The M-MDSC (M-MDSC, PMN-MDSC; 15 mg/kg intragastric) was 0.38 ± 0.23 % and the PMN-MDSC (M-MDSC, PMN-MDSC; 15 mg/kg intragastric) was 4.82 ± 0.62 %.

Work on `COC(=O)[C@]12CCC(C)(C)C[C@H]1[C@H]1C(=O)C=C3[C@@]4(C)C=C(C#N)C(=O)C(C)(C)[C@@H]4CC[C@@]3(C)[C@]1(C)CC2` [CDDO-Me, 2-cyano-3,12-dioxoolean-1,9(11)-dien-28-oic acid methyl ester, reference compound] yielded an IC50 [1] of 448 ± 12 nM, an IC50 ([2]; MCF-7 cells) of 728 ± 288 nM and an IC50 [3] of 326 ± 21 nM. The IC50 [4] was 335 ± 34 nM, the IC50 [5] was 0.308 ± 0.01 µM and the “Tumor Mass” value (S180 ascitic tumor cells; 15 mg/kg intragastric) was 1.67 ± 0.14 g. The Tumor inhibition rate (S180 ascitic tumor cells; 15 mg/kg intragastric) was 36.75%, the Splenic index (S180 ascitic tumor cells; 15 mg/kg intragastric) was 53.61 ± 4.15 10*mg/g and the M-MDSC (M-MDSC, PMN-MDSC; 15 mg/kg intragastric) was 1.15 ± 0.12 %. It also gave a PMN-MDSC (M-MDSC, PMN-MDSC; 15 mg/kg intragastric) of 10.91 ± 1.62 %.
